Assay results taken from paper PMC11433764, “A Novel Compound from the Phenylsulfonylpiperazine Class: Evaluation of In Vitro Activity on Luminal Breast Cancer Cells” (Molecules, 2024).

Assays:
MCF7 = test: MTT cell viability, MCF7; format: cell-based; conditions: Homo sapiens, MCF7; 48 h, MTT, 1.25–160 μM; read-out: IC50 MCF7
Method: Four different breast cells lines were used in this study: MCF-10A (non-tumorigenic), MCF7 (ER+ BC), MDA-MB453 (HER2+ BC) and MDA-MB231 (TNBC). All lineages were obtained from the American Type Culture Collection (ATCC; Manassas, VA, USA) and maintained at a temperature of 37 °C according to the supplier’s recommendations. Only MDA-MB231 cells were not kept in an atmosphere of 5% CO2. MCF-10A was grown in Dulbecco’s Modified Eagle’s Medium (DMEM F12, Gibco, ThermoFisher Scientific, Waltham, MA, USA) supplemented with 20 ng/mL epidermal growth factor (Gibco, ThermoFisher Scientific, Waltham, MA, USA), 0.5 μg/mL hydrocortisone (Sigma-Aldrich, Sigma-Aldrich, St. Louis, MO, USA) and 10 μg/mL insulin (Gibco, ThermoFisher Scientific, Waltham, MA, USA). MCF7 was cultivated in Roswell Park Memorial Institute Medium (RPMI-1640, Gibco, ThermoFisher Scientific, Waltham, MA, USA), MDA-MB453 in IMDM and MDA-MB231 in Leibovitz’s medium (L-15, Gibco, ThermoFisher Scientific, Waltham, MA, USA). All media were supplemented with 10% fetal bovine serum (FBS, Gibco, ThermoFisher Scientific, Waltham, MA, USA) and 50 µg/mL of gentamicin (Cultilab, Campinas, SP, Brazil). The cells were confirmed to be free of mycoplasma and passaged using a 0.25% trypsin-EDTA solution when confluency reached 80–90%.
Cell viability was determined by spectrophotometric quantification of MTT (3-[4,5-dimethyl-thiazol-2-yl]-2,5-diphenyltetrazolium bromide—Invitrogen. Waltham, MA, USA) reduction to formazan crystals. Cells were seeded at the density of 1 × 10^4 cells/well (MCF-10A, MDA-MB453), 1.5 × 10^4 cells/well (MDA-MB231) and 3 × 10^3 cells/well (MCF7) in 96-well culture dishes and incubated with different concentrations of the compounds (1.25, 2.5, 5, 10, 20, 40, 80 and 160 µM) for 48 h. The medium was than replaced by MTT solution (0.5 mg/mL) and plates were kept at 37 °C for 4 h. After the aspiration of the media, the formazan crystals were diluted with 100 μL of dimethyl-sulfoxide (DMSO)/well and the absorbance at 570 nm was measured using a spectrophotometer (Thermo Plate TP-Reader, Waltham, MA, USA). Cytotoxicity was calculated using the following formula: Cytotoxicity (%) = [absorbance of cells treated with the compounds/absorbance of cells treated with DMSO) × 100]. The IC50 was determined for each compound and was defined as the concentration required to inhibit 50% of cell growth, compared to the control sample (cells treated with DMSO 0.05%).
Data were presented as the mean ± standard deviation (SD) and analyzed using GraphPad Prism 9.0 software (GraphPad Software Inc., La Jolla, CA, USA). All data were assayed in triplicate. Statistical analysis was performed using one-way ANOVA, Tukey´s HSD post hoc test and Student’s t-test. The IC50 was calculated using non-linear regression and the selectivity index (SI) was calculated by the ratio between the IC50 values corresponding to the non-tumor cell lineage (MCF-10A) and the IC50 values corresponding to the BC cell lines. Statistical significance was accepted at p values < 0.05.

CDH1 = test: qPCR, CDH1 expression in MCF7; format: cell-based; conditions: vs untreated cells
Method: Total RNA was extracted using Trizol reagent (Invitrogen), according to the manufacturer’s protocol. The quality of extracted RNA was verified by the spectrophotometric readings at 260 and 280 nm (Nanodrop 1000-ThermoFisher), and the first strand of cDNA was synthesized from 1 µg of total RNA via reverse transcription using GoScript™ Reverse Transcription Mix (Promega, Madison, WI, EUA). qPCR analysis was performed using 5.0 μL of Power SYBR Green PCR Master Mix (Applied Biosystems, Carlsbad, CA, USA) and run on a StepOnePlus Systems (Applied Biosystems, Carlsbad, CA, USA) device with the following cycling parameters: 40 cycles of 95 °C for 10 s and 60 °C for 30 s. The comparative Cq was used to find the relative expression of CDH1 (E-caderina), ENTPD1 (ectonucleoside triphosphate diphosphohydrolase 1), ENTPD2 (ectonucleoside triphosphate diphosphohydrolase 2), ENTPD3 (ectonucleoside triphosphate diphosphohydrolase 3), ENTPD5 ([…]) and KRT10 (keratin 10) genes, after relative standard curve optimization. β-2-microglobulin (β2M) was used as a reference gene. The primer sequences are described in Table 3.

SMILES: O=C(c1ccc(-n2cnnn2)cc1)N1CCN(S(=O)(=O)c2ccc(Cl)cc2)CC1 [Compound 3, (4-(1H-tetrazol-1-yl)phenyl)(4-((4-chlorophenyl)sulfonyl)piperazin-1-yl)methanone]
- IC50 (MCF7): 4.48 µM
- Fold Change CDH1 mRNA (CDH1; MCF7, 1.125 µM): 1.874
- Fold Change CDH1 mRNA (CDH1; MCF7, 2.25 µM): 1.045
